ChEMBL document CHEMBL1141521, “Individual stereoisomers of phosphinic dipeptide inhibitor of leucine aminopeptidase” (Bioorg Med Chem Lett, 2008)

Biological target: T1, Leucine aminopeptidase (Plasmodium falciparum 3D7, UniProt Q8IL11)
T1 sequence (Q8IL11 whole entry): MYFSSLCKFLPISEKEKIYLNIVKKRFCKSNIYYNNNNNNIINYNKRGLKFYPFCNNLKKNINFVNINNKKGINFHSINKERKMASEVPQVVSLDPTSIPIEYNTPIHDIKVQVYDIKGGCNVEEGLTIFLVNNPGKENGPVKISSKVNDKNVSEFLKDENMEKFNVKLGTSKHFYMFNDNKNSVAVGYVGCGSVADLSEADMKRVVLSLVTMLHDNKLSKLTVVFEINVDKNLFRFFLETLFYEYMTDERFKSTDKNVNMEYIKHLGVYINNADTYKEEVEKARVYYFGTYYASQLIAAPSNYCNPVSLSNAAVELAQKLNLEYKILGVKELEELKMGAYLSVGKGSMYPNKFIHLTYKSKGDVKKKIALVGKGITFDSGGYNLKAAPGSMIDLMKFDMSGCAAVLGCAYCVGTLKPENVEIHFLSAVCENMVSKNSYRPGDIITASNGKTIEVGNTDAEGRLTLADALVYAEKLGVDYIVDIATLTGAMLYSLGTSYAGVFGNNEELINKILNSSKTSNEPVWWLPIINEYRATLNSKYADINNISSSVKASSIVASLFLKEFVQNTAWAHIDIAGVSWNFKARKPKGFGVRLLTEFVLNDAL
Test: Inhibition of Plasmodium falciparum recombinant leucine aminopeptidase

Molecule `NC(CCc1ccccc1)P(=O)(O)CC(Cc1ccccc1)C(=O)O` (stereo unspecified) has a Ki of 13.2 nM.
